One assay relates to mouse splenic cells. Kind of assay: Inhibitory action on blastogenesis of mouse splenic cells ([3H]-thymidine incorporation). As to conditions: 72 hours. It counts as cell-based. As for the experimental part:
Inhibitory Action on Blastogenesis of Mouse Splenic Cells
The spleen was excised from each of BALB/c mice (Charles River Japan; female; 10-week-old), and it was allowed to pass through a mesh to obtain a single cell suspension. This single cell suspension was prepared to be 1.0×10^6 cells/ml. Thereafter, 200 μl of the suspension was fractionated into each well of a 96-well plate. Thereafter, as blastogenic stimulation, 5 μg/ml concanavalin A (Pharmacia) or 25 μg/ml Escherichia coli-derived lipopolysaccharide (DIFCO) was added to the well, and then, a solution containing a test compound with each different concentration was further added thereto at an amount of 20 μl/well. The obtained mixture was cultured at 37° C. for 72 hours in an incubator containing 5% carbon dioxide. Thereafter, a 1 μCi/10 μl/well [^3H]-thymidine solution was added thereto 64 hours after initiation of the culture. After completion of the culture (72 hours later), the cells were captured on a filter using a cell harvester, and they were then dried. Thereafter, scintillator was added thereto, and the radioactivity of [^3H]-thymidine incorporated into the cells was then measured using a liquid scintillation counter. The inhibition rate of the DNA synthesis was calculated using the aforementioned formula (3). Thereafter, the concentration of a test compound necessary for inhibition of 50% (IC50 value) was obtained.

The test system of assay [1] is (C57BL/6XB6. C—H2^bml) F1 mice. As to the kind of experiment: Life-lengthening effect on graft versus host disease (GVHD). It counts as in vivo, mouse. As to conditions: oral, once a day. As to the method:
Life-Lengthening Effect on Graft Versus Host Disease (GVHD)
The present test was carried out by modification of the method of Jonathan et al. (Jonathan et al., Blood, p. 93 (1999)). First, 6.0 Gy X-ray was applied to (C57BL/6XB6. C—H2^bml) F1 mice (produced by mating 6XB6.C—H2^bml mice (Jackson Laboratory) with C57BL/6 mice (Charles River Japan); female; 8 to 12-week-old). Thereafter, CD8 positive T cells (1.25×10^6 cells) prepared from the splenic cells of C57BL/6 mice (Charles River Japan; female; 8-week-old) were intravenously injected into the above (C57BL/6XB6. C—H2^bml) F1 mice. From the day before the injection, the test compound having each diluted concentration or 0.5% carboxymethyl cellulose used as a solvent was orally administered to the mice once a day for 7 to 30 consecutive days. The day on which the transplantation was conducted was defined as day 0. Based on the median of the survival days of each group, the prolongation rate of such survival dates was calculated using the following formula (7). Thus, the effect of the test compound on GVHD was analyzed.
[formula] • Eexp: Median of survival days of test compound administration group • Cexp: Median of survival days of solvent administration group

Assay [2] has as its system MHC class I molecules of T1 cells (human lymphoma cell line 174×CEM.). As to the kind of experiment: Effect on expression of MHC class I from T1 cells (flow cytometry, MFI). The class given is cell-based. The settings on record: 3 days culture. The essentials: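 EC20 is the compound level that lowers MHC class I MFI by 20% relative to compound-free cultures. Read-out was flow cytometry after FITC W6/32 staining.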
(In general: A flow cytometer gives signals particle by particle.)

In assay [3] the test system is human dendritic cells cultured with human allogenic T cells. Kind of assay: Effect on the ability of human dendritic cells to induce the growth of allogenic T cells ([3H]-thymidine incorporation). It counts as cell-based. As to conditions: dendritic cells treated 3 days with test compound and TNF-α, then 5 days with allogenic T cells, read-out: IC50 (inhibition of DNA synthesis of lymphocytes). As for the experimental part: Effect on the Ability of Human Dendritic Cells to Induce the Growth of Allogenic T Cells
Immature dendritic cells were cultured with a test compound and TNF-α for 3 days by the same method as that described in Test Example 2. The obtained dendritic cells (2.5×10^3 cells/50 μl/well) were cultured together with human allogenic T cells (2.0×10^5 cells/150 μl/well) in a 96-well flat bottom plate at 37° C. for 5 days in an incubator containing 5% carbon dioxide. Thereafter, [^3H]-thymidine (Amersham Pharmacia Biotech) was added thereto at an amount of 1 μCi/10 μl/well, 16 hours before completion of the culture. After completion of the culture, cells were captured on a glass filter using a cell harvester (Skatron Instrument) and then dried. Thereafter, Scintillator ACS-II (Amersham Pharmacia Biotech) was added thereto, and the radioactivity of [^3H]-thymidine incorporated into the cells were then measured using a liquid scintillation counter. The inhibition rate of the DNA synthesis of lymphocytes was calculated using the following formula (3). Thereafter, the concentration of a test compound necessary for inhibition of 50% (IC50 value) was obtained.
[formula] • Eexp: The amount of [^3H]-thymidine incorporated into cultured cells containing test compound • Cexp: The amount of [^3H]-thymidine incorporated into cultured cells containing no test compounds
Background: Incorporation of labelled thymidine or its analogues reports DNA synthesis.

For assay [4], the system named is MHC class I molecules of human peripheral blood-derived dendritic cells. Kind of assay: Effect on expression of MHC class I molecules from human peripheral blood-derived dendritic cells. It counts as cell-based. As to conditions: dendritic cells matured with TNF-α, 3 days; read-out: EC50 (reduction of 50% of the number of cells wherein MHC class I molecules were highly expressed). From the text:
Effect on Expression of MHC Class I Molecules from Human Peripheral Blood-Derived Dendritic Cells
Monocytes were isolated from human peripheral blood by the specific gravity centrifugation method. Thereafter, using mouse anti-human CD14 antibody-binding microbeads and a magnetic cell separation system (Miltenyi Biotec), CD14 positive cells were separated from the peripheral blood monocytes. The separated CD14 positive cells were suspended in an RPMI 1640 medium containing 10% FBS, and the suspension was then inoculated in a 6-well plate, resulting in a concentration of 1.0×10^6 cells/well. It was cultured at 37° C. for 20 minutes in an incubator containing 5% carbon dioxide. […] Thereafter, RPMI 1640 containing a 500 U/ml human recombinant […] (hereinafter referred to as GM-CSF; Anapure Bioscientific), 50 ng/ml human recombinant interleukin 4 (hereinafter referred to as IL-4; Pepro Tech), and 10% FBS, was added to the remaining suspension at a concentration of 2 ml/well. The obtained mixture was then cultured at 37° C. in an incubator containing 5% carbon dioxide. When adhesive CD14 positive cells are cultured in the presence of GM-CSF and IL-4, the CD14 positive cells were differentiated into non-adhesive immature dendritic cells. After the cells had been cultured for 7 days, non-adhesive cells were recovered to obtain immature dendritic cells. Using a 6-well plate, the immature dendritic cells (2.5×10^5 cells/well) were cultured in RPMI 1640 containing a 100 U/ml human recombinant tumor necrosis factor-α (hereinafter referred to as TNF-a; Pepro Tech), a test compound, and 10% FBS, at 37° C. for 3 days in an incubator containing 5% carbon dioxide. The dendritic cells became mature as a result of the presence of TNF-α, but in the present test, a test compound was allowed to simultaneously act on the cells. The mature dendritic cells were then stained with fluoroisothiocyanate-labeled mouse anti-human MHC class I monoclonal antibody (an antibody generated from the cell line W6/32 (ATCC No. CRL 1991)). The rate of the number of cells wherein MHC class I molecules were highly expressed to the total number of cells was measured by flow cytometry. The reduction rate of the number of cells wherein MHC class I molecules were highly expressed was calculated using the following formula (2), and the concentrations of test compounds necessary for reduction of 50% (EC50 values) were obtained.
[formula] • Eexp: (The number of cells, wherein MHC class I molecules are highly expressed, in cultured cells containing test compound)/(the total number of cells) • Cexp: (The number of cells, wherein MHC class I molecules are highly expressed, in cultured cells containing no test compounds)/(the total number of cells)

[5] abbreviates: 5 μg/ml concanavalin A, read-out: Lymphocyte blastogenesis IC50 (μM), ConA stimulation.
Setting [6] is: 25 μg/ml Escherichia coli-derived lipopolysaccharide, read-out: Lymphocyte blastogenesis IC50 (μM), LPS stimulation.
[7] abbreviates: 100 mg/kg/single administration.
Where [8] appears, read: Mus musculus, Lymphocyte, 5 μg/ml concanavalin A, read-out: Lymphocyte blastogenesis IC50 (μM), ConA stimulation.
Where [9] appears, read: Mus musculus, Lymphocyte, 25 μg/ml Escherichia coli-derived lipopolysaccharide, read-out: Lymphocyte blastogenesis IC50 (μM), LPS stimulation.

Read-outs that look alike come from different tables or passages of the source.

The source of these data is US7598244B2, “[1,2,4]triazolo[1,5,a]pyrimidin-2-ylurea derivative and use thereof” (Nippon Kayaku Kabushiki Kaisha, priority 2003, dated 2009).

In general, IC50 refers to the concentration needed to halve the response being measured. A word on the EC50: it is the concentration at which the effect is half-maximal.

In the case of `COc1ccc(-c2ccnc3nc(NC(=O)N[C@@H](C)c4cccc(OC)c4)nn23)cc1` [Example 132], the results for the IC50 (in the assay with mouse splenic cells (setting [5]); in the assay on mouse splenic cells (setting [6]); in assay [3]) were 0.08 µM, 0.06 µM and 625 nM, respectively. Besides, the “Lengthening rate of survival days (%)” value in assay [1] (setting [7]) is given as 200%. Moreover, the “EC20 (concentration necessary for suppressing 20% of the expression level of MHC class I molecules)” value in assay [2] turned out to be 39 nM.
In the case of `COc1ccc(-c2ccnc3nc(NC(=O)NC(C(=O)OC(C)(C)C)C(C)C)nn23)cc1` (stereo not drawn) [Example 045], the IC50 is 0.41 µM with mouse splenic cells (setting [8]), 0.09 µM in the assay on mouse splenic cells (setting [9]) and 280 nM in assay [3] (Homo sapiens). Besides, in assay [2], the “EC20 (concentration necessary for suppressing 20% of the expression level of MHC class I molecules)” value was found to be 30 nM. In addition, in assay [4], the concentration for a half-maximal effect (EC50) was 120 nM.
For the molecule `CC(C)NC(=O)Nc1nc2nccc(-c3cccc(OCC4CCCO4)c3)n2n1` (stereo not drawn) [Example 184], the IC50 in the assay on mouse splenic cells (setting [5]) was determined as 0.63 µM; with mouse splenic cells (setting [6]), 0.29 µM. In addition, the “EC20 (concentration necessary for suppressing 20% of the expression level of MHC class I molecules)” value in assay [2] was found to be 210 nM.
As to `COc1ccc(-c2ccnc3nc(NC(=O)NC(C)CCCC(C)(C)O)nn23)cc1` (racemic) [Example 219], the “Lengthening rate of survival days (%)” value in assay [1] (25 mg/kg/single administration) stood at 200%. For the same molecule, the “EC20 (concentration necessary for suppressing 20% of the expression level of MHC class I molecules)” value in assay [2] is 50 nM.
`CCOCCC(C)NC(=O)Nc1nc2nccc(-c3ccc(OC)cc3)n2n1` (stereo not drawn) [Example 274]: the “Lengthening rate of survival days (%)” value in assay [1] (setting [7]) was determined as 55%. Further, the “EC20 (concentration necessary for suppressing 20% of the expression level of MHC class I molecules)” value in assay [2] came to 110 nM.
In the case of `COc1cccc([C@H](C)NC(=O)Nc2nc3nccc(-c4ccc5c(c4)OCO5)n3n2)c1` [Example 300, (S)-1-[1-(3-methoxyphenyl)ethyl]-3-[7-(3,4-methylenedioxyphenyl)-[1,2,4]triazolo[1,5-a]pyrimidin-2-yl]urea], the “Lengthening rate of survival days (%)” value in assay [1] (10 mg/kg/single administration) worked out at 100%. Besides, the “EC20 (concentration necessary for suppressing 20% of the expression level of MHC class I molecules)” value in assay [2] turned out to be 19 nM.
Turning to `COc1ccc(-c2ccnc3nc(NC(=O)N[C@@H](C)c4ccccc4)nn23)cc1` [Example 101], the half-maximal inhibitory concentration (IC50) turned out to be 0.58 µM in the assay on mouse splenic cells (setting [8]), 0.18 µM with mouse splenic cells (setting [9]) and 625 nM in assay [3] (Homo sapiens). Further, the “EC20 (concentration necessary for suppressing 20% of the expression level of MHC class I molecules)” value in assay [2] was 210 nM. Further, the EC50 in assay [4] was found to be 220 nM.
As to `COc1ccc(-c2ccnc3nc(NC(=O)N[C@@H](C)CCCC(C)C)nn23)cc1` [Example 160], the half-maximal inhibitory concentration (IC50) in the assay on mouse splenic cells (setting [5]) was determined as 0.07 µM; with mouse splenic cells (setting [6]), 0.04 µM; in assay [3], 156 nM. Besides, in assay [2], the “EC20 (concentration necessary for suppressing 20% of the expression level of MHC class I molecules)” value is 14 nM.
With `CC(C)NC(=O)Nc1nc2nccc(-c3cccc(OCCC4OCCCO4)c3)n2n1` [Example 183], the values for the IC50 with mouse splenic cells (setting [5]) and in the assay on mouse splenic cells (setting [6]) were 0.55 µM and 0.14 µM, respectively. In addition, the “EC20 (concentration necessary for suppressing 20% of the expression level of MHC class I molecules)” value in assay [2] was found to be 220 nM.
Consider `COc1ccc(-c2ccnc3nc(NC(=O)N[C@@H](C)CCCC(C)(C)O)nn23)cc1` [Example 319, (S)-1-(5-hydroxy-1,5-dimethylhexyl)-3-[7-(4-methoxyphenyl)-[1,2,4]triazolo[1,5-a]pyrimidin-2-yl]urea], for which the “Lengthening rate of survival days (%)” value in assay [1] (10 mg/kg/single administration) and in assay [1] (50 mg/kg/single administration) was 200% each time. Moreover, in assay [2], the “EC20 (concentration necessary for suppressing 20% of the expression level of MHC class I molecules)” value amounted to 20 nM.
`COc1ccc(-c2ccnc3nc(NC(=O)NC(C)CCC(C)(C)O)nn23)cc1` (racemic) [Example 317, (±)-1-(4-hydroxy-1,4-dimethylpentyl)-3-[7-(4-methoxyphenyl)-[1,2,4]triazolo[1,5-a]pyrimidin-2-yl]urea]: in assay [1] (30 mg/kg/single administration), the “Lengthening rate of survival days (%)” value is recorded as 24%. Besides, the “EC20 (concentration necessary for suppressing 20% of the expression level of MHC class I molecules)” value in assay [2] was 60 nM.
